Results taken from US5985835A, “Desmopressin for nocturia, incontinence and enuresis” (priority 1997, dated 1999).
Where two headings read alike, the source gives them in different places.

Experiments:
Format in all cases: in vivo, human
[1] = test system: patients 60-74 years of age with increased nocturnal frequency due to nocturnal polyuria
Experimental: This example provides efficacy and safety data for oral desmopressin in the treatment of increased frequency due to nocturnal polyuria in the elderly. The study started with a run-in week to establish baseline. An open dose titration, one week each of 0.1 mg, 0.2 mg and 0.4 mg, was performed and followed by a wash-out of 1-2 weeks. Then followed the double-blind, placebo controlled, cross-over part of the study using the dose selected in the dose titration. Placebo and active treatment were given for 14 days each in a randomized order. […] The diagnosis and main criteria for inclusion was a healthy adult patient between 60-74 years of age suffering from increased nocturnal frequency (≥2 nocturnal voids) and a nocturnal urinary output ≥0.9 ml/min. The desmopressin used for the study was […]®, 0.1 mg and 0.2 mg tablets. […] Study duration, including run-in and wash-out periods, was 9 weeks. The criteria for evaluation were: 1. Efficacy: the change in nocturnal diuresis (ml/min), nocturnal micturition episodes and 24-hour diuresis. 2. Safety: changes from baseline in blood pressure, S-sodium, ankle circumference and bodyweight. Incidence of adverse events. The efficacy endpoints during the double blind part of the study were subjected to statistical analysis with an ANOVA model. Sequence effect was tested with the within mean square in the ANOVA. The residuals obtained were plotted against predicted values, normal plots were also produced. The plots were examined for relationship between variance and mean non-normality. Shapiro-Wilks test was performed to assist in these assessments. The difference in effect is presented in 95% confidence intervals for least square means, placebo versus desmopressin. All tests performed used a significance level of α=5%.

[2] = test system: elderly persons with increased nocturnal diuresis; assay: Pilot study of desmopressin treatment during 48 hours in elderly persons with increased nocturnal diuresis; conditions: desmopressin treatment on two successive days
Experimental: ADH levels were studied in a group of elderly persons who had increased nocturnal diuresis. The levels generally were very low and a pilot study was done to determine the effect of desmopressin treatment during a period of 48 hours. Their nocturnal diuresis had decreased during desmopressin treatment on two successive days. After an evaluation of this study the participants were invited to take part in a two-month treatment with desmopressin ([…]®) 40 μg, given as an intranasal aerosol at 20.00 h. The tests consisted of 7 men (aged 72±4 years) and 14 women (aged 73±6 years). No changes in their way of life and no restriction in fluid intake was prescribed. The study was carried out after one and two months of treatment and one month after the treatment.

[3] = test system: elderly persons with increased nocturnal diuresis and decreased ADH secretion; conditions: for Diuresis-day: 08-20 h; for Diuresis-night: 20-08 h
Experimental: They had no cardiac or renal disease or diabetes nor were they receiving diuretics. […] Intravenous specimens for the determination of ADH and NAP were frozen at […]. Plasma ADH was measured as arginine vasopressin by radioimmunoassay after extraction with ethanol. The reference range for plasma ADH was 1-5 pmol 1^-1 with an interassay variability of 15.1% at 0.9 pmol 1^-1 and 6.3% at 1.25 pmol 1^-1. Their nocturnal diuresis had decreased during desmopressin treatment on two successive days. After an evaluation of this study the participants were invited to take part in a two-month treatment with desmopressin ([…]®) 40 μg, given as an intranasal aerosol at 20.00 h. […] No changes in their way of life and no restriction in fluid intake was prescribed. The study was carried out after one and two months of treatment and one month after the treatment. […] Mean values of diuresis and micturitions for the 12-hour periods were calculated (Table 2). At these times also a questionnaire with 12 questions about general wellbeing and sleep was filled in (Table 1). The statistical method used a mean value ± standard deviation. The paired numerical data were analyzed with the 2-sided Student's t-test. Non-numerical data were analyzed with the x'-test.

[4] = oral tablets, titrated dose 0.1-0.4 mg, 14 days, statistically significant
[5] = men, 1 month of 40 μg intranasal
[6] = men, 2 months of 40 μg intranasal
[7] = men, 3 months (one month after treatment)
[8] = women, 1 month of 40 μg intranasal
[9] = women, 2 months of 40 μg intranasal
[10] = women, 3 months (one month after treatment)

NC(=O)CC[C@@H]1NC(=O)[C@H](Cc2ccccc2)NC(=O)[C@H](Cc2ccc(O)cc2)NC(=O)CCSSC[C@@H](C(=O)N2CCC[C@H]2C(=O)N[C@H](CCCN=C(N)N)C(=O)NCC(N)=O)NC(=O)[C@H](CC(N)=O)NC1=O [Desmopressin, 1-deamino-8-D-arginine vasopressin]
Tolerability ([1]; in vivo, po): well tolerated | Duration of sleep between voids compared to placebo ([1]; oral tablets, titrated dose 0.1-0.4 mg, 14 days): significantly longer | Nocturnal diuresis compared to placebo [1, 4]: lower | Nocturnal voids compared to placebo [1, 4]: fewer | Nocturnal symptoms ([1]; oral tablets, elderly population): significantly decreases | Nocturnal diuresis [2]: decreased | Number of women who reduced nocturnal diuresis by less than 400 ml ([3]; after one month): 9 women | Number of women who reduced nocturnal diuresis by less than 400 ml ([3]; after two months): 7 women | Total 24-hour diuresis ([3]; during the study): more or less unchanged | Decrease in average diuresis during the night, women versus men ([3]; during the treatment): twice as large in women as in men | Diuresis during the daytime ([3]; during treatment): changed insignificantly | Body weight ([3]; in vivo): did not change | Potassium in serum ([3]; in vivo): did not change | Sodium in serum ([3]; in vivo): did not change | Diuresis-day/night ([3]; men, 0 (before treatment)): 0.67 ± 0.20 | No. of micturitions - night ([3]; men, 0 (before treatment)): 4.3 ± 1.2 | Diuresis-day ([3]; men, 0 (before treatment), mean ± SD): 511 ± 85 mL | Diuresis-night ([3]; men, 0 (before treatment)): 763 ± 42 mL | Diuresis-day Deviation from initial value % ([3]; men, 1 month): -9% | Diuresis-day/night ([3]; men, 1 month): 0.83 ± 0.28 | Diuresis-night Deviation from initial value % ([3]; men, 1 month): -21% | No. of micturitions - night ([3]; men, 1 month): 3.8 ± 1.7 | Diuresis-day [3, 5]: 465 ± 72 mL | Diuresis-night [3, 5]: 603 ± 178 mL | Diuresis-day Deviation from initial value % ([3]; men, 2 months): 2% | Diuresis-day/night ([3]; men, 2 months): 0.91 ± 0.29 | Diuresis-night Deviation from initial value % ([3]; men, 2 months): -20% | No. of micturitions - night ([3]; men, 2 months): 4.5 ± 2.0 | Diuresis-day [3, 6]: 524 ± 117 mL | Diuresis-night [3, 6]: 612 ± 174 mL | Diuresis-day Deviation from initial value % [3, 7]: -14% | Diuresis-day/night [3, 7]: 0.66 ± 0.26 | Diuresis-night Deviation from initial value % [3, 7]: -6% | No. of micturitions - night [3, 7]: 4.1 ± 1.6 | Diuresis-day [3, 7]: 441 ± 68 mL | Diuresis-night [3, 7]: 717 ± 168 mL | Reduction of nocturnal diuresis (all the men) ([3]; men, after both one and two months): less than 400 ml | Decrease in nocturnal diuresis from the initial value ([3]; men, after one month): 21% | Decrease in nocturnal diuresis from the initial value ([3]; men, after two months): 20% | Daytime diuresis ([3]; one month after treatment, both men and women): there remained a reduction | Number of nocturnal micturitions ([3]; women versus men): women were affected most positively | Diuresis-day/night ([3]; women, 0 (before treatment)): 0.84 ± 0.40 | Diuresis-day ([3]; women, 0 (before treatment)): 699 ± 368 mL | Diuresis-night ([3]; women, 0 (before treatment)): 892 ± 361 mL | Diuresis-day Deviation from initial value % ([3]; women, 1 month): 6% | Diuresis-day/night ([3]; women, 1 month): 1.46 ± 0.87 | Diuresis-night Deviation from initial value % ([3]; women, 1 month): -36% | Diuresis-day [3, 8]: 746 ± 368 mL | Diuresis-night [3, 8]: 570 ± 172 mL | Diuresis-day Deviation from initial value % ([3]; women, 2 months): -4% | Diuresis-day/night ([3]; women, 2 months): 1.14 ± 0.36 | Diuresis-night Deviation from initial value % ([3]; women, 2 months): -34% | Diuresis-day [3, 9]: 673 ± 257 mL | Diuresis-night [3, 9]: 592 mL | Diuresis-day Deviation from initial value % [3, 10]: -14% | Diuresis-day/night [3, 10]: 0.89 ± 0.36 | Diuresis-night Deviation from initial value % [3, 10]: -17% | Diuresis-day [3, 10]: 587 ± 173 mL | Diuresis-night [3, 10]: 739 ± 260 mL | Decrease in nocturnal diuresis from the initial value ([3]; women, after one month): 36% | Decrease in nocturnal diuresis from the initial value ([3]; women, after two months): 34% | Less nocturnal diuresis than initial value ([3]; women, one month after the last day of treatment): 17%
